This note sets out measurements from US10172357B2, “Fungicidal composition and method for controlling plant diseases” (ISHIHARA SANGYO KAISHA, LTD., priority 2015, dated 2019).

The experiment deals with Blumeria graminis. As to the kind of experiment: Test on preventive effect against wheat powdery mildew (seed treatment). In kind it is in vivo, Blumeria graminis on wheat (cultivar: Norin-61-go). The note with it: seed coating, first leaf, 7 days after inoculation; for Lesion area ratio (%): non-treated plot 90. From the text:
50 g of wheat seeds (cultivar: Norin-61-go), and predetermined amounts of an aqueous suspension containing pyriofenone 30% (WN) (tradename: PROPERTY FLOWABLE), an aqueous suspension containing fluazinam 50% (WN) (tradename: FROWNCIDE SC) and an aqueous suspension containing thiophanate-methyl 75% (WM) (tradename: TOPSIN M sol) so that the respective active ingredient amounts were as identified in Table 1 (g.a.i./100 kg seed), were put in a plastic bag, sufficiently stirred and air-dried to obtain seeds coated with a fungicidal composition. Ten seeds coated with a fungicidal composition were sown in a plastic pot (diameter: 7.5 cm, height: 6.8 cm, cylindrical black plastic pot, soil: culture soil). Wheat plants were cultivated in a greenhouse and at the 1-leaf stage, conidia of Blumeria graminis were dusted and inoculated, and the wheat plants were maintained in a constant temperature chamber at 20° C. The same operation was conducted with respect to seeds coated with the respective active ingredients individually, for comparison, as shown in Table 1. 7 days after the inoculation, the lesion area ratio on the first leaf was examined, and the control value was calculated based on the following formula. Further, theoretical values (control values) by use in combination were also calculated in accordance with the following Colby's formula. Control value=(1−a/b)×100 • a: lesion area ratio in treated plot • b: lesion area ratio in non-treated plot Colby's formula=(X+Y+Z)−(XY+YZ+ZX)/100+XYZ/10,000 • X: control value of component (a) used singly • Y: control value of component (b) used singly • Z: control value of component (c) used singly

Setting [1] is: thiophanate-methyl 23.3 g.a.i./100 kg seed.
Setting [2] is: thiophanate-methyl 35 g.a.i./100 kg seed.
The mark [3] stands for this setting: thiophanate-methyl 70 g.a.i./100 kg seed.
The mark [4] stands for this setting: fluazinam 3.3 g.a.i./100 kg seed.
Setting [5] is: fluazinam 10 g.a.i./100 kg seed.
The mark [6] stands for this setting: pyriofenone 30 g.a.i./100 kg seed.

Regarding `COC(=O)NC(=S)Nc1ccccc1NC(=S)NC(=O)OC` [Thiophanate-methyl, 1,2-di-(3-methoxycarbonyl-2-thioureido)benzene], the Control value turned out to be 0 under setting [1], 33 under setting [2] and 44 under setting [3]. Further, the “Lesion area ratio (%)” value under setting [1] was determined as 90%, the “Lesion area ratio (%)” value under setting [2] was found to be 60% and the “Lesion area ratio (%)” value under setting [3] stood at 50%.

Consider `O=[N+]([O-])c1cc(C(F)(F)F)c(Cl)c([N+](=O)[O-])c1Nc1ncc(C(F)(F)F)cc1Cl` [Fluazinam, N-(3-chloro-5-trifluoromethyl-2-pyridyl)-2,6-dinitro-3-chloro-4-trifluoromethylaniline], for which the Control value runs as follows: under setting [4], 0; (fluazinam 5 g.a.i./100 kg seed) 0; under setting [5], 0. In addition, the “Lesion area ratio (%)” value is, setting by setting: under setting [4], 90%; (fluazinam 5 g.a.i./100 kg seed) 90%; under setting [5], 90%.

`COc1cc(C)c(C(=O)c2c(OC)ncc(Cl)c2C)c(OC)c1OC` [Pyriofenone, 3-(2,3,4-trimethoxy-6-methylbenzoyl)-5-chloro-2-methoxy-4-methylpyridine]: under setting [6], the Control value is 44 and the “Lesion area ratio (%)” value is recorded as 50%.
